These are literature values, as cited in US10647965B2, “Hetero-transglycosylase and uses thereof” (BASF SE, priority 2013, dated 2020).

SMILES strings stand for the structures.

This data set concerns XTHs (xyloglucan endotransglucosylases). To be noted: read-out: KM for XXXGol, comparison value, donor not stated.

With `OC[C@@H](O)[C@@H](O[C@@H]1O[C@H](CO[C@H]2OC[C@@H](O)[C@H](O)[C@H]2O)[C@@H](O[C@@H]2O[C@H](CO[C@H]3OC[C@@H](O)[C@H](O)[C@H]3O)[C@@H](O[C@@H]3O[C@H](CO[C@H]4OC[C@@H](O)[C@H](O)[C@H]4O)[C@@H](O)[C@H](O)[C@H]3O)[C@H](O)[C@H]2O)[C@H](O)[C@H]1O)[C@H](O)[C@@H](O)CO` [XXXGol, Xyl3.Glc3.glucitol], the Km was 50 to 200 µM.
